Earlier results as cited in patent US11357716B2, “Sunscreen compositions” (Kobo Products, Inc., priority 2016, dated 2022).

Tests used:
[1] = Active: BEMT 4%
[2] = Active: BEMT 4%; remark: listed apart in the source

Q: Which results are given for CCCCC(CC)COc1ccc(-c2nc(-c3ccc(OC)cc3)nc(-c3ccc(OCC(CC)CCCC)cc3O)n2)c(O)c1 (centres unmarked) [BEMT, bis-ethylhexyloxyphenol methoxyphenyl triazine]?
A: UVA-PF in vivo [1]: in vivo = 7.6 ± 2.2; SPF in vivo [2]: in vivo = 7.3 ± 1.2
